Source: the supplement of paper PMC13380429

What was measured:
Details in all cases: 72 h
Caco-2 [1] = experiment: relative viability EC50 (midpoint between 100% and the lowest measured viability); higher = less toxic
Vero E6 [2] = experiment: as above
U2OS [3] = experiment: as above
Calu-3 [4] = experiment: as above
HepG2 [5] = experiment: cell viability relative to DMSO; higher = less toxic
Caco-2 [6] = experiment: as above
Vero E6 [7] = experiment: as above
U2OS [8] = experiment: as above
Calu-3 [9] = experiment: as above
HepG2 [10] = experiment: drug sensitivity score (DSS) for viability; higher = more toxic; extreme values may be limits of the assay
Caco-2 [11] = experiment: as above
Vero E6 [12] = experiment: as above
U2OS [13] = experiment: as above
Calu-3 [14] = experiment: as above
HepG2 [15] = experiment: relative viability EC50 (midpoint between 100% and the lowest measured viability); higher = less toxic

| Structure (SMILES) | relative viability EC50 (Caco-2 [1]) [µM] | relative viability EC50 (Vero E6 [2]) [µM] | relative viability EC50 (U2OS [3]) [µM] | relative viability EC50 (Calu-3 [4]) [µM] | cell viability (HepG2 [5]; 1 nM) [%] | cell viability (HepG2 [5]; 10 nM) [%] | cell viability (HepG2 [5]; 100 nM) [%] | cell viability (HepG2 [5]; 1000 nM) [%] | cell viability (HepG2 [5]; 10000 nM) [%] | cell viability (Caco-2 [6]; 1 nM) [%] | cell viability (Caco-2 [6]; 10 nM) [%] | cell viability (Caco-2 [6]; 100 nM) [%] | cell viability (Caco-2 [6]; 1000 nM) [%] | cell viability (Caco-2 [6]; 10000 nM) [%] | cell viability (Vero E6 [7]; 1 nM) [%] | cell viability (Vero E6 [7]; 10 nM) [%] | cell viability (Vero E6 [7]; 100 nM) [%] | cell viability (Vero E6 [7]; 1000 nM) [%] | cell viability (Vero E6 [7]; 10000 nM) [%] | cell viability (U2OS [8]; 1 nM) [%] | cell viability (U2OS [8]; 10 nM) [%] | cell viability (U2OS [8]; 100 nM) [%] | cell viability (U2OS [8]; 1000 nM) [%] | cell viability (U2OS [8]; 10000 nM) [%] | cell viability (Calu-3 [9]; 1 nM) [%] | cell viability (Calu-3 [9]; 10 nM) [%] | cell viability (Calu-3 [9]; 100 nM) [%] | cell viability (Calu-3 [9]; 1000 nM) [%] | cell viability (Calu-3 [9]; 10000 nM) [%] | drug sensitivity score (HepG2 [10]) | drug sensitivity score (Caco-2 [11]) | drug sensitivity score (Vero E6 [12]) | drug sensitivity score (U2OS [13]) | drug sensitivity score (Calu-3 [14]) | relative viability EC50 (HepG2 [15]) [µM] |
| --- | --- | --- | --- | --- | --- | --- | --- | --- | --- | --- | --- | --- | --- | --- | --- | --- | --- | --- | --- | --- | --- | --- | --- | --- | --- | --- | --- | --- | --- | --- | --- | --- | --- | --- | --- |
| O=C1Nc2ccc(I)cc2C1=Cc1cc(Br)c(O)c(Br)c1 [GW-5074] | > 10 | > 10 | > 10 | > 10 | 90.3 | 98.5 | 97.3 | 97.5 | 68.9 | 95.6 | 97.5 | 108 | 95 | 88.3 | 97 | 97.3 | 95.8 | 96 | 108 | 99.3 | 97.3 | 100 | 96.1 | 95.5 | 95.1 | 94.2 | 104 | 90.9 | 114 | 1.8 | 0.2 | 0 | 0 | 0 | – |
| O=C1C[C@@H](c2ccc(O)cc2)Oc2cc(O)ccc21 [MF-101] | – | > 10 | > 10 | > 10 | 95.8 | 93.7 | 103 | 97.6 | 90.4 | 81.1 | 99.7 | 92.3 | 103 | 78.1 | 101 | 102 | 95.3 | 92.1 | 99.8 | 98.4 | 95.4 | 96.4 | 99.7 | 95.9 | 103 | 112 | 106 | 104 | 99.4 | 0 | 0.4 | 0 | 0 | 0 | > 10 |
| CCc1ccc2c(-c3cccc(Cl)c3)nc(=O)n(CC)c2n1 [YM-976] | > 10 | > 10 | – | > 10 | 95.9 | 104 | 97 | 103 | 86.3 | 104 | 95.6 | 104 | 109 | 97.1 | 96.6 | 97.3 | 92.3 | 90.1 | 91.9 | – | – | – | – | – | 109 | 98.7 | 101 | 98.3 | 108 | 0.1 | 0 | 0 | – | 0 | > 10 |
| Nc1nc2c(ncn2COCCO)c(=O)[nH]1 [acyclovir] | – | > 10 | > 10 | > 10 | 96.3 | 92 | 95.1 | 94.7 | 96.3 | – | – | – | – | – | 110 | 92.7 | 98.3 | 98 | 101 | 91.6 | 101 | 94.7 | 99.7 | 104 | 95.3 | 101 | 102 | 106 | 119 | 0 | – | 0 | 0 | 0 | > 10 |
| O=c1c2ccccc2[se]n1-c1ccccc1 [ebselen] | > 10 | > 10 | > 10 | > 10 | – | – | – | – | – | 88 | 102 | 107 | 88.5 | 100 | 96.4 | 98.5 | 99.4 | 97.6 | 104 | 97.4 | 98.7 | 105 | 97.4 | 102 | 107 | 93.5 | 91.3 | 87.6 | 111 | – | 0 | 0 | 0 | 0 | – |
| COc1ccc([C@@H]2CC(=O)c3c(O)cc(O)cc3O2)cc1O [hesperetin] | > 10 | > 10 | > 10 | > 10 | – | – | – | – | – | 104 | 88.5 | 92.7 | 104 | 98.4 | 94.9 | 98.7 | 98.9 | 90.1 | 108 | 104 | 96.3 | 97.1 | 99.8 | 102 | 102 | 93.7 | 102 | 93 | 89.2 | – | 0 | 0 | 0 | 0.1 | – |
| Oc1c(Cl)cc(Cl)c(Cl)c1Cc1c(O)c(Cl)cc(Cl)c1Cl [hexachlorophene] | 2.29 | > 10 | – | > 10 | 98 | 98.3 | 94 | 94.4 | 23.8 | 95 | 97.1 | 92.3 | 91.6 | 20.9 | 102 | 102 | 100 | 99.9 | 82 | 97.8 | 96.8 | 92.9 | 96.1 | 70.9 | 107 | 103 | 107 | 99.4 | 94.2 | 5.1 | 5.8 | 0.5 | 1.9 | 0 | 2.57 |
| O=C1N[C@@H]2[C@@H](O)[C@@H](O)[C@H](O)[C@@H](CO)N2C1=O [kifunensine] | – | > 10 | > 10 | > 10 | 95.6 | 103 | 99.4 | 98.7 | 82.6 | 98.5 | 105 | 91.8 | 75.1 | 67.5 | 107 | 89.7 | 96.2 | 94.5 | 84.2 | 104 | 102 | 96.2 | 97.4 | 99 | 100 | 106 | 103 | 90.7 | 93 | 0.5 | 4.8 | 0.3 | 0 | 0 | > 10 |
| COc1ccc(CN(CCN(C)C)c2ccccn2)cc1 [mepyramine] | – | > 10 | > 10 | > 10 | 99.8 | 95.7 | 91 | 102 | 92.8 | – | – | – | – | – | 95.7 | 93.1 | 95.1 | 98.5 | 102 | 98 | 99.8 | 103 | 101 | 95.9 | 101 | 113 | 112 | 106 | 93 | 0 | – | 0 | 0 | 0 | > 10 |
| CN(Cc1cnc2nc(N)nc(N)c2n1)c1ccc(C(=O)N[C@@H](CCC(=O)O)C(=O)O)cc1 [methotrexate] | – | 0.284 | > 10 | > 10 | 94.3 | 103 | 105 | 21.8 | 18.6 | 98.3 | 99.6 | 97.6 | 67.1 | 66 | 103 | 99.1 | 96.1 | 14.7 | 14.3 | 103 | 98.2 | 98 | 92.1 | 97.2 | 104 | 94.3 | 93.9 | 95.8 | 96.5 | 14 | 6.1 | 16.1 | 0 | 0 | 0.379 |
| CC(=O)OC/C=C(C)/C=C/C=C(C)/C=C/C1=C(C)CCCC1(C)C [retinyl-acetate] | > 10 | > 10 | – | > 10 | – | – | – | – | – | 112 | 99 | 104 | 95.9 | 114 | 103 | 103 | 102 | 98 | 102 | – | – | – | – | – | 93.7 | 90.4 | 112 | 90.7 | 93.3 | – | 0 | 0 | – | 0 | – |
| CC[C@H]1OC(=O)C[C@@H](O)[C@H](C)[C@@H](O[C@@H]2O[C@H](C)C[C@H](N(C)C)[C@H]2O)[C@@H](CC=O)C[C@@H](C)C(=O)/C=C/[C@]2(C)O[C@H]2[C@@H]1C [rosamicin] | – | > 10 | 3.09 | > 10 | 87 | 106 | 98.4 | 103 | 28.9 | 94.6 | 102 | 101 | 100 | 71.5 | 94.7 | 102 | 92.9 | 97 | 90.9 | 100 | 94.2 | 98.8 | 99.4 | 37.1 | 101 | 84.5 | 101 | 107 | 87.2 | 3.7 | 1.2 | 0 | 3.5 | 0 | 3.41 |
| COc1cc(C[C@@H](CO)[C@H](CO)Cc2ccc(O)c(OC)c2)ccc1O [secoisolariciresinol-(-)] | > 10 | > 10 | > 10 | > 10 | – | – | – | – | – | 94.7 | 102 | 87.6 | 93 | 94.7 | 113 | 110 | 98.6 | 97.3 | 99.3 | 100 | 99.1 | 98.7 | 104 | 93.8 | 98.7 | 102 | 107 | 91.9 | 92.4 | – | 0 | 0 | 0 | 0 | – |
| Cn1nnc(-c2ccc(-c3ccc(N4C[C@H](COP(=O)(O)O)OC4=O)cc3F)cn2)n1 [tedizolid-phosphate] | > 10 | > 10 | > 10 | > 10 | 106 | 96.9 | 91 | 71.7 | 53.1 | 108 | 97.8 | 94.2 | 87.3 | 87.9 | 98.5 | 101 | 97.9 | 89.3 | 89.8 | 98.8 | 98.5 | 97.1 | 93.8 | 93.4 | 102 | 103 | 114 | 86.1 | 97.6 | 6.1 | 0.8 | 0.2 | 0 | 0.9 | – |
| Cc1cc2cc3c(C)cc(=O)oc3c(C)c2o1 [trioxsalen] | > 10 | > 10 | > 10 | > 10 | 104 | 88.8 | 94.7 | 86.1 | 65.8 | 111 | 99.6 | 91.3 | 92.4 | 80.5 | 97.4 | 96 | 99.5 | 97.5 | 96.3 | 103 | 105 | 101 | 106 | 99.6 | 105 | 96.3 | 106 | 120 | 108 | 2.9 | 1 | 0 | 0 | 0 | – |
| CCc1c(C(=O)C(N)=O)c2c(OCC(=O)O)cccc2n1Cc1ccccc1 [varespladib] | > 10 | > 10 | – | > 10 | 93.3 | 105 | 96.2 | 101 | 97.7 | 106 | 90.1 | 94.4 | 93 | 106 | 104 | 102 | 107 | 103 | 99.5 | – | – | – | – | – | 104 | 99.2 | 91.2 | 110 | 101 | 0 | 0 | 0 | – | 0 | > 10 |
